Results on 27 molecules are retold here after patent publication US9284333B2, “Fused pyrroledicarboxamides and their use as pharmaceuticals” (SANOFI, priority 2012, dated 2016).

The structures appear in SMILES notation.

Sequence of Human TASK-1 channels (O14649 whole entry): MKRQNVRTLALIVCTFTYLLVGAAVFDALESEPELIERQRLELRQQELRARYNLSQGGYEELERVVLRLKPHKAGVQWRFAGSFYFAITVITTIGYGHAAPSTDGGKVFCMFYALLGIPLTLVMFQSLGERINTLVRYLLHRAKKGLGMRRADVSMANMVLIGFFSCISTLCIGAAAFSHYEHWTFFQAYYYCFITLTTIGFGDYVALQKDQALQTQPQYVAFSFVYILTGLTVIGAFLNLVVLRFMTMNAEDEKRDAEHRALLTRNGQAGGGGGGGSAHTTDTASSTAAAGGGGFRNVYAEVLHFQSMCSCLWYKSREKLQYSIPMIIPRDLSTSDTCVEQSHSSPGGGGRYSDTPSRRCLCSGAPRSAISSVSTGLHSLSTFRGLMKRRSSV

The first experiment addresses Human TASK-1 channels (Homo sapiens (Human), UniProt O14649). The experiment can be described thus: Determination of the activity on the TASK-1 channel in Xenopus oocytes (two-microelectrode voltage clamp). The settings on record: compound concentration 5 μM. It is filed as cell-based. As to the method:
Determination of the activity on the TASK-1 channel in Xenopus oocytes
Human TASK-1 channels were expressed in Xenopus oocytes. For this purpose, oocytes were isolated from Xenopus laevis and defoliculated. Subsequently, TASK-1-encoding RNA synthesized in vitro was injected into the oocytes. After two days of TASK-1 protein expression, TASK-1 currents were measured by two-microelectrode voltage clamp. Data were acquired and analyzed using a TEC-10cx amplifier (NPI Electronic, Tamm, Germany) connected to an ITC-16 interface (Instrutech Corp., Long Island, USA) and Pulse software (HEKA Elektronik, Lambrecht, Germany). Oocytes were clamped to −90 mV and TASK-1 mediated currents were measured during 500 ms voltage pulses to 40 mV. Oocytes were continuously superfused with ND96 buffer containing 96 mM sodium chloride, 2 mM potassium chloride, 1.8 mM calcium chloride, 1 mM magnesium chloride, 5 mM 4-(2-hydroxyethyl)-piperazine-1-ethanesulfonic acid (HEPES; pH adjusted to 7.4 with sodium hydroxide). All experiments were performed at room temperature. Test compounds were consecutively added to the bath solution at rising concentrations. Compound effects were calculated as the percentage inhibition of TASK-1 control current before compound addition. IC50 values were obtained by fitting the data to the general dose-response equation.
`C#CC1CCCN1C(=O)c1cc(C(=O)N[C@H](CC)c2ccccc2)c2n1CCOC2` (stereo partly drawn) [16fx, 6-(2-Ethynyl-pyrrolidine-1-carbonyl)-3,4-dihydro-1H-pyrrolo[2,1-c][1,4]oxazine-8-carboxylic acid ((R)-1-phenyl-propyl)-amide]: at 5 µM the inhibition was 90%. Still for that read-out and setting: under `C[C@H]1CCCN1C(=O)c1cc(C(=O)NCc2c(Cl)cccc2Cl)c2n1CCOC2` [16ag, 6-((S)-2-Methyl-pyrrolidine-1-carbonyl)-3,4-dihydro-1H-pyrrolo[2,1-c][1,4]oxazine-8-carboxylic acid 2,6-dichloro-benzylamide] stands 84%; under `CC[C@@H](NC(=O)c1cc(C(=O)N2CCCC2C(O)c2ccccc2)n2c1COCC2)c1ccccc1` (stereo partly drawn) [16fj, 6-[2-(Hydroxy-phenyl-methyl)-pyrrolidine-1-carbonyl]-3,4-dihydro-1H-pyrrolo[2,1-c][1,4]oxazine-8-carboxylic acid ((R)-1-phenyl-propyl)-amide], 89%.

The same experiment, now with this note: human TASK-1 expressed in Xenopus oocytes, room temperature; read-out: IC50 value for TASK-1 inhibition.
For the molecule `C[C@@H](NC(=O)c1cc(C(=O)N[C@H](C)c2ccc(F)cc2)n2c1COCC2)c1ccccc1` [16dn, 3,4-Dihydro-1H-pyrrolo[2,1-c][1,4]oxazine-6,8-dicarboxylic acid 6-{[(R)-1-(4-fluoro-phenyl)-ethyl]-amide} 8-[((R)-1-phenyl-ethyl)-amide]], the IC50 came out at 50 nM.

`CC[C@@H](NC(=O)c1cc(C(=O)N2CCN(c3ccccn3)CC2)n2c1COCC2)c1ccccc1` [16fq, 6-(4-Pyridin-2-yl-piperazine-1-carbonyl)-3,4-dihydro-1H-pyrrolo[2,1-c][1,4]oxazine-8-carboxylic acid ((R)-1-phenyl-propyl)-amide]: the IC50 was 1100 nM. Take `CC[C@@H](NC(=O)c1cc(C(=O)N2CCC[C@@H]2C)n2c1COCC2)c1cccc(C(F)(F)F)n1` [16ap]: the IC50 was determined as 76 nM. `CC[C@@H](NC(=O)c1cc(C(=O)NCC(C)C)n2c1COCC2)c1ccccc1` [16gf, 3,4-Dihydro-1H-pyrrolo[2,1-c][1,4]oxazine-6,8-dicarboxylic acid 6-isobutylamide 8-[((R)-1-phenyl-propyl)-amide]]: the IC50 worked out at 340 nM. On the same count and under the same terms, with `CC[C@@H](NC(=O)c1cc(C(=O)NC(C)c2ncccn2)n2c1COCC2)c1ccccc1` (stereo partly drawn) [16hd, 3,4-Dihydro-1H-pyrrolo[2,1-c][1,4]oxazine-6,8-dicarboxyli cacid 8-[((R)-1-phenyl-propyl)-amide] 6-[(1-pyrimidin-2-yl-ethyl)-amide]] the figure was 560 nM; with `CC[C@@H](NC(=O)c1cc(C(=O)Nc2cc(C(F)(F)F)ccc2Cl)c2n1CCOC2)c1ccccc1` [16jx, 3,4-Dihydro-1H-pyrrolo[2,1-c][1,4]oxazine-6,8-dicarboxylic acid 8-[(2-chloro-5-trifluoromethyl-phenyl)-amide] 6-[((R)-1-phenyl-propyl)-amide]], 220 nM; with `CC[C@@H](NC(=O)c1cc(C(=O)NCc2cnco2)c2n1CCCC2)c1ccccc1` [16mc, 5,67,8-Tetrahydro-indolizine-1,3-dicarboxylic acid 1-[(oxazol-5-ylmethyl)-amide] 3-[((R)-1-phenyl-propyl)-amide]], 620 nM.

Consider `CC[C@@H](NC(=O)c1cc(C(=O)N2CCC(c3ccccc3)C2)n2c1CCCC2)c1ccccc1` (stereo partly drawn) [16ms, 3-(3-Phenyl-pyrrolidine-1-carbonyl)-5,6,7,8-tetrahydro-indolizine-1-carboxylic acid ((R)-1-phenyl-propyl)-amide], for which the IC50 is 550 nM.

`CC[C@@H](NC(=O)c1cc(C(=O)N2CCC[C@@H]2C)n2c1COCC2)c1cccc(C#N)n1` [16ah, 6-((S)-2-Methyl-pyrrolidine-1-carbonyl)-3,4-dihydro-1H-pyrrolo[2,1-c][1,4]oxazine-8-carboxylic acid [(R)-1-(6-cyano-pyridin-2-yl)-propyl]-amide]: the IC50 worked out at 3200 nM.

Turning to `CC[C@@H](NC(=O)c1cc(C(=O)N2CCC[C@@H]2C)n2c1CCCC2)c1ccc(C#N)nc1` [16lv, 3-((S)-2-Methyl-pyrrolidine-1-carbonyl)-5,6,7,8-tetrahydro-indolizine-1-carboxylic acid [(R)-1-(6-cyano-pyridin-3-yl)-propyl]-amide], the IC50 came to 2100 nM. As to `CC[C@@H](NC(=O)c1cc(C(=O)N2CCC[C@@H]2C)n2c1COCC2)c1c(Cl)cncc1Cl` [16bv, 6-((S)-2-Methyl-pyrrolidine-1-carbonyl)-3,4-dihydro-1H-pyrrolo[2,1-c][1,4]oxazine-8-carboxylic acid [(R)-1-(3,5-dichloro-pyridin-4-yl)-propyl]-amide], the IC50 came to 140 nM. As to `CCOC(=O)[C@H](NC(=O)c1cc(C(=O)N[C@H](CC)c2ccccc2)c2n1CCOC2)c1ccccc1` [16hq, (R)-Phenyl-{[8-((R)-1-phenyl-propylcarbamoyl)-3,4-dihydro-1H-pyrrolo[2,1-c][1,4]oxazine-6-carbonyl]-amino}-acetic acid ethyl ester], the IC50 stood at 320 nM. The same measure, in the same setting: with `CC[C@@H](NC(=O)c1cc(C(=O)N[C@H]2CCc3ccccc32)n2c1COCC2)c1ccccc1` [16gj, 3,4-Dihydro-1H-pyrrolo[2,1-c][1,4]oxazine-6,8-dicarboxylic acid 6-(S)-indan-1-ylamide 8-[((R)-1-phenyl-propyl)-amide]] the figure was 48 nM; with `CC[C@@H](NC(=O)c1cc(C(=O)NCc2ccc(F)cc2F)c2n1CCOC2)c1cccc(OC)n1` [16nt, 3,4-Dihydro-1H-pyrrolo[2,1-c][1,4]oxazine-6,8-dicarboxylic acid 8-(2,4-difluoro-benzylamide) 6-{[(R)-1-(6-methoxy-pyridin-2-yl)-propyl]-amide}], 670 nM. The same measure, in the same setting: under `CC[C@@H](NC(=O)c1cc(C(=O)N2CCC[C@@H]2C(F)(F)F)n2c1COCC2)c1ccc(C(F)(F)F)nc1` [16o, 6-((R)-2-Trifluoromethyl-pyrrolidine-1-carbonyl)-3,4-dihydro-1H-pyrrolo[2,1-c][1,4]oxazine-8-carboxylic acid [(R)-1-(6-trifluoromethyl-pyridin-3-yl)-propyl]-amide] stands 410 nM.

As to `CC[C@@H](NC(=O)c1cc(C(=O)Nc2c(C)noc2C)c2n1CCOC2)c1ccccc1` [16jk, 3,4-Dihydro-1H-pyrrolo[2,1-c][1,4]oxazine-6,8-dicarboxylic acid 8-[(3,5-dimethyl-isoxazol-4-yl)-amide] 6-[((R)-1-phenyl-propyl)-amide]], the IC50 worked out at 620 nM. Still for that read-out and setting: with `CC[C@H](NC(=O)c1cc(C(=O)N[C@H](CC)c2ccccc2)c2n1CCOC2)c1cnc(OC)cn1` [16hz, 3,4-Dihydro-1H-pyrrolo[2,1-c][1,4]oxazine-6,8-dicarboxylic acid 6-{[(S)-1-(5-methoxy-pyrazin-2-yl)-propyl]-amide} 8-[((R)-1-phenyl-propyl)-amide]] the figure was 130 nM. On the same count and under the same terms, with `CC[C@@H](NC(=O)c1cc(C(=O)N2CCC[C@@H]2C)n2c1COCC2)c1ccccn1` [16ph, 6-((S)-2-Methyl-pyrrolidine-1-carbonyl)-3,4-dihydro-1H-pyrrolo[2,1-c][1,4]oxazine-8-carboxylic acid ((R)-1-pyridin-2-yl-propyl)-amide] the figure was 650 nM; with `CC[C@@H](NC(=O)c1cc(C(=O)N[C@H](CC)c2ccccc2)n2c1CCCC2)c1ccccc1` [16ma, 5,6,7,8-Tetrahydro-indolizine-1,3-dicarboxylic acid bis-[((R)-1-phenyl-propyl)-amide]], 51 nM; with `CC(C)[C@@H](NC(=O)c1cc(C(=O)NCc2cnccn2)c2n1CCOC2)c1ccc(F)cc1` [16lo, 3,4-Dihydro-1H-pyrrolo[2,1-c][1,4]oxazine-6,8-dicarboxylic acid 6-{[(R)-1-(4-fluoro-phenyl)-2-methyl-propyl]-amide} 8-[(pyrazin-2-ylmethyl)-amide]], 420 nM. Same read-out and setting: with `CC[C@@H](NC(=O)c1cc(C(=O)N2CCC[C@@H]2C)c2n1CCOC2)c1ccc(C#N)nc1` [16nj, 8-((S)-2-Methyl-pyrrolidine-1-carbonyl)-3,4-dihydro-1H-pyrrolo[2,1-c][1,4]oxazine-6-carboxylic acid [(R)-1-(6-cyano-pyridin-3-yl)-propyl]-amide] the figure was 2000 nM. Take `CC[C@@H](NC(=O)c1cc(C(=O)N2CCC[C@@H]2C)n2c1COC(C)(C)C2)c1ccc(C#N)cc1` [16nx, 3,3-Dimethyl-6-((S)-2-methyl-pyrrolidine-1-carbonyl)-3,4-dihydro-1H-pyrrolo[2,1-c][1,4]oxazine-8-carboxylic acid [(R)-1-(4-cyano-phenyl)-propyl]-amide]: the IC50 was determined as 370 nM. Consider `CC[C@@H](NC(=O)c1cc(C(=O)Nc2c(C)noc2C)n2c1COCC2)c1ccccc1` [16hg, 3,4-Dihydro-1H-pyrrolo[2,1-c][1,4]oxazine-6,8-dicarboxylic acid 6-[(3,5-dimethyl-isoxazol-4-yl)-amide] 8-[((R)-1-phenyl-propyl)-amide]], for which the IC50 is 600 nM. The same measure, in the same setting: under `CC[C@@H](NC(=O)c1cc(C(=O)N2CCC[C@@H]2C)n2c1COCC2)c1cccc(OC)n1` [16z, 6-((S)-2-Methyl-pyrrolidine-1-carbonyl)-3,4-dihydro-1H-pyrrolo[2,1-c][1,4]oxazine-8-carboxylic acid [(R)-1-(6-methoxy-pyridin-2-yl)-propyl]-amide] stands 270 nM.

Broadly, the inhibition is the percentage by which the read-out fell short of the control. For orientation: IC50 means the midpoint of a concentration-inhibition curve.
